Source: patent US20240158446A1, “CYCLIC COMPOUND HAVING SELECTIVE INHIBITORY ACTION ON KRAS OVER HRAS AND NRAS” (CHUGAI SEIYAKU KABUSHIKI KAISHA, priority 2021, published 2024)
Like-named read-outs stand apart in the source and are kept apart here. Where a SMILES comes first, the peptide text is derived from it. Bridges are numbered along the chain shown (N, C = ends). [ ]: non-standard residue; d: D form. The star is where a group is joined. hPhe(3,5-F2-4-CF3) = N[C@@H](CCc1cc(F)c(C(F)(F)F)c(F)c1)C(=O)O; NPrPhe(4-CF3) = CCCN[C@@H](Cc1ccc(C(F)(F)F)cc1)C(=O)O; NMeGly(cPent) = CN[C@H](C(=O)O)C1CCCC1; NMeD = CN[C@@H](CC(=O)O)C(=O)O; NMeL = CN[C@@H](CC(C)C)C(=O)O; αMeS = C[C@](N)(CO)C(=O)O; Morpholide = C1CN(*)CCO1; Sar = CNCC(=O)O

Legend:
[1] = target: GDP-bound KRAS wild-type protein (Homo sapiens, UniProt P01116); assay: Binding to KRAS by surface plasmon resonance (SPR), Single Cycle Kinetics; conditions: GDP-bound KRAS wild-type protein, read-out: KRAS KD
Sequence of GDP-bound KRAS wild-type protein (P01116 whole entry): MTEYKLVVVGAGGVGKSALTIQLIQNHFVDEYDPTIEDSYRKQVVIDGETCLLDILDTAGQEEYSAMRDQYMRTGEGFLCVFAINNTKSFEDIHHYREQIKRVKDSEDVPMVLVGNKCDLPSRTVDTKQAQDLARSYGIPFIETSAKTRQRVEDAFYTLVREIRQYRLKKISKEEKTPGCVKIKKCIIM

[2] = target: GDP-bound NRAS wild-type protein (Homo sapiens, UniProt P01111); assay: Binding to NRAS by surface plasmon resonance (SPR), Single Cycle Kinetics; conditions: for NRAS/KRAS (ratio of KD value with respect to GDP-bound NRAS wild-type protein to KD value with respect to KRAS): SPR KD ratio NRAS/KRAS, class symbols
Sequence of GDP-bound NRAS wild-type protein (P01111 whole entry): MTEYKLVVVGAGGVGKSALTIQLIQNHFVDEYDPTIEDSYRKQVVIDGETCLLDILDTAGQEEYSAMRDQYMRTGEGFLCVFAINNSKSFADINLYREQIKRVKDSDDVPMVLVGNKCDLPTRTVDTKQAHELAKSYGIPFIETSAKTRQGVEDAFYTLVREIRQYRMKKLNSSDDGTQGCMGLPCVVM

[3] = target: GDP-bound HRAS wild-type protein (Homo sapiens, UniProt P01112); assay: Binding to HRAS by surface plasmon resonance (SPR), Single Cycle Kinetics; conditions: for HRAS/KRAS (ratio of KD value with respect to GDP-bound HRAS wild-type protein to KD value with respect to KRAS): SPR KD ratio HRAS/KRAS, class symbols
Sequence of GDP-bound HRAS wild-type protein (P01112 whole entry): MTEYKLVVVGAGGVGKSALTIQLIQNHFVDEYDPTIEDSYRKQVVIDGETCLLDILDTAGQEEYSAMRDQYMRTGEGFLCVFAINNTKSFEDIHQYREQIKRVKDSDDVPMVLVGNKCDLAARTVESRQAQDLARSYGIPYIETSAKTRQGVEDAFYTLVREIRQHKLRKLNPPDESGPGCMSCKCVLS

[4] = test system: human lung cancer strain NCI-H441;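 further: cell proliferation inhibition after four days measured by CellTiter-Glo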
[5] = SPR, GDP-bound NRAS wild-type protein vs GDP-bound KRAS wild-type protein
[6] = SPR, GDP-bound HRAS wild-type protein vs GDP-bound KRAS wild-type protein
[7] = SPR, Single Cycle Kinetics, 1:1 binding model
[8] = SPR, GDP-bound NRAS wild-type protein vs GDP-bound KRAS wild-type protein, KD ratio class
[9] = SPR, GDP-bound HRAS wild-type protein vs GDP-bound KRAS wild-type protein, KD ratio class
[10] = SPR Single Cycle Kinetics, 1:1 binding model

Compound | IC50 [4] | Kd [1, 7] | Kd [1, 10] | NRAS/KRAS (ratio of KD value for NRAS to KD value for KRAS) [2, 8] | HRAS/KRAS (ratio of KD value for HRAS to KD value for KRAS) [3, 9] | NRAS/KRAS (ratio of KD value with respect to GDP-bound NRAS wild-type protein to KD value with respect to KRAS) [2] | HRAS/KRAS (ratio of KD value with respect to GDP-bound HRAS wild-type protein to KD value with respect to KRAS) [3] | also measured
CCO[C@@H]1C[C@H]2C(=O)NC3(CCC3)C(=O)N(C)[C@@H](C3CCCC3)C(=O)N(C)[C@H](C(=O)N3CCOCC3)CC(=O)N(C)[C@@H](CC(C)C)C(=O)N[C@@H]([C@@H](C)CC)C(=O)N(C)CC(=O)N(C)[C@H]3CCCCCN(C3=O)[C@@H](Cc3ccc4ccsc4c3)C(=O)N(C)CC(=O)N[C@@H](CCc3cc(F)c(C(F)(F)F)c(F)c3)C(=O)N2C1 [PP0921] | 139 nM | – | – | – | – | – | – | Kd ([1]; SPR, Single Cycle Kinetics): 2.6 nM; NRAS/KRAS (ratio of KD value for NRAS to KD value for KRAS) [2, 5]: B (a compound having 3 or more and less than 10 is denoted as B); HRAS/KRAS (ratio of KD value for HRAS to KD value for KRAS) [3, 6]: B (a compound having 3 or more and less than 10 is denoted as B)
CCC[C@H]1C(=O)N[C@@H]([C@@H](C)CC)C(=O)N(C)CC(=O)N(C)[C@H]2C/C=C\CCN(C2=O)[C@@H](Cc2ccc(C(F)(F)F)cc2)C(=O)N(C)CC(=O)N[C@@H](CCc2ccc(Cl)c(Cl)c2)C(=O)N2C[C@H](OCC)C[C@H]2C(=O)NC2(CC(C)(C)C2)C(=O)N(C)[C@@H](CC2CCC2)C(=O)N(C)[C@H](C(=O)N(C)C)CC(=O)N1C [PP2766] | 26 nM | – | 0.52 nM | – | – | A (a compound having 10 or more and less than 20 is denoted as A) | A (a compound having 10 or more and less than 20 is denoted as A) | –
CCCOC[C@H]1C(=O)N[C@@H]([C@@H](C)CC)C(=O)N(C)CC(=O)N(C)[C@H]2C/C=C\CCN(C2=O)[C@@H](Cc2ccc(C)cc2)C(=O)N(C)CC(=O)N[C@@H](CCc2ccc(C(F)(F)F)c(OC)c2)C(=O)N2C[C@H](OCC)C[C@H]2C(=O)NC2(CC(C)(C)C2)C(=O)N(C)[C@@H](CC(C)(C)C)C(=O)N(C)[C@H](C(=O)N(C)C)CC(=O)N1C [PP2712] | 6.3 nM | – | 0.11 nM | – | – | A (a compound having 10 or more and less than 20 is denoted as A) | B (a compound having 3 or more and less than 10 is denoted as B) | –
CCC[C@H]1C(=O)N[C@@H](CC(C)C)C(=O)N(CC)CC(=O)N(C)[C@H]2C/C=C\CCN(C2=O)[C@@H](Cc2ccc(C)cc2)C(=O)N(C)CC(=O)N[C@@H](CCc2ccc(C(F)(F)F)c(Cl)c2)C(=O)N2C[C@H](OCC)C[C@H]2C(=O)NC2(CC(C)(C)C2)C(=O)N(C)[C@@H](C2CCCC2)C(=O)N(C)[C@H](C(=O)N(C)C)CC(=O)N1C [PP2528] | 207 nM | – | 4.6 nM | – | – | A (a compound having 10 or more and less than 20 is denoted as A) | B (a compound having 3 or more and less than 10 is denoted as B) | –
CCO[C@@H]1C[C@H]2C(=O)NC3(CC(C)(C)C3)C(=O)N(C)[C@@H](C3CCCC3)C(=O)N(C)[C@H](C(=O)N(C)C)CC(=O)N(C)[C@@H](COC)C(=O)N[C@@H]([C@@H](C)CC)C(=O)N(C)CC(=O)N(C)[C@H]3C/C=C\CCN(C3=O)[C@@H](Cc3ccc(C)cc3)C(=O)N(C)CC(=O)N[C@@H](CCc3cc(F)c(C(F)(F)F)c(F)c3)C(=O)N2C1 [PP2391] | 8.9 nM | – | – | – | – | – | – | Kd ([1]; SPR, Single Cycle Kinetics): 0.043 nM; NRAS/KRAS (ratio of KD value for NRAS to KD value for KRAS) [2, 5]: A (a compound having 10 or more and less than 20 is denoted as A); HRAS/KRAS (ratio of KD value for HRAS to KD value for KRAS) [3, 6]: A (a compound having 10 or more and less than 20 is denoted as A)

Continued by falling IC50 [4], values first:

IC50 [4] | Kd [1, 7] | Kd [1, 10] | Compound | NRAS/KRAS (ratio of KD value for NRAS to KD value for KRAS) [2, 8] | HRAS/KRAS (ratio of KD value for HRAS to KD value for KRAS) [3, 9] | NRAS/KRAS (ratio of KD value with respect to GDP-bound NRAS wild-type protein to KD value with respect to KRAS) [2] | HRAS/KRAS (ratio of KD value with respect to GDP-bound HRAS wild-type protein to KD value with respect to KRAS) [3] | also measured
93.4 nM | 0.34 nM | – | CCO[C@@H]1C[C@H]2C(=O)NC3(CCC3)C(=O)N(C)[C@@H](C(CC)CC)C(=O)N(C)[C@H](C(=O)N(C)C)CC(=O)N(C)[C@@H](C)C(=O)N[C@@H]([C@@H](C)CC)C(=O)N(C)CC(=O)N(C)[C@H]3C/C=C\CCN(C3=O)[C@@H](Cc3ccc(C(F)(F)F)cc3)C(=O)N(C)CC(=O)N[C@@H](CCc3ccc(Cl)c(Cl)c3)C(=O)N2C1 [PP1214] | AA (a compound having 20 or more is denoted as AA) | A (a compound having 10 or more and less than 20 is denoted as A) | – | – | –
85.8 nM | 0.92 nM | – | CCO[C@@H]1C[C@H]2C(=O)NC3(CCC3)C(=O)N(C)[C@@H](C3CCCC3)C(=O)N(C)[C@H](C(=O)N(C)C)CC(=O)N(C)[C@@H](CC(C)C)C(=O)N[C@@H]([C@@H](C)CC)C(=O)N(C)CC(=O)N(C)[C@H]3C/C=C\CCN(C3=O)[C@@H](Cc3ccc(F)cc3C)C(=O)N(C)CC(=O)N[C@@H](CCc3ccc(Cl)c(Cl)c3)C(=O)N2C1 [PP1480] | A (a compound having 10 or more and less than 20 is denoted as A) | B (a compound having 3 or more and less than 10 is denoted as B) | – | – | –
82.7 nM | – | 1.5 nM | CCC(CC)[C@H]1C(=O)N(C)[C@H](C(=O)N(C)C)CC(=O)N(C)[C@@H](COC)C(=O)N[C@@H]([C@@H](C)CC)C(=O)N2CCC[C@H]2C(=O)N(C)[C@H]2C/C=C\CCN(C2=O)[C@@H](Cc2ccc(C(F)F)cc2)C(=O)N(C)CC(=O)N[C@@H](CCc2ccc(Cl)c(Cl)c2)C(=O)N2C[C@H](OC3CCCC3)C[C@H]2C(=O)NC2(CC(C)(C)C2)C(=O)N1C [PP2652] | – | – | AA (a compound having 20 or more is denoted as AA) | A (a compound having 10 or more and less than 20 is denoted as A) | –
40.4 nM | 0.26 nM | – | CCO[C@@H]1C[C@H]2C(=O)NC3(CCC3)C(=O)N(C)[C@@H](C3CCCC3)C(=O)N(C)[C@H](C(=O)N3CCCC3)CC(=O)N(C)[C@@H](CC3CCCCC3)C(=O)N[C@@H]([C@@H](C)CC)C(=O)N(C)CC(=O)N(C)[C@H]3C/C=C\CCN(C3=O)[C@@H](Cc3ccc(C(F)(F)F)cc3)C(=O)N(C)CC(=O)N[C@@H](CCc3cc(F)c(C(F)(F)F)c(F)c3)C(=O)N2C1 [PP1419] | AA (a compound having 20 or more is denoted as AA) | A (a compound having 10 or more and less than 20 is denoted as A) | – | – | –
40.4 nM | 0.18 nM | – | CCO[C@@H]1C[C@H]2C(=O)NC3(CCC3)C(=O)N(C)[C@@H](C(CC)CC)C(=O)N(C)[C@H](C(=O)N(C)C)CC(=O)N(C)[C@@H](COC)C(=O)N[C@@H]([C@@H](C)CC)C(=O)N(C)CC(=O)N(C)[C@H]3C/C=C\CCN(C3=O)[C@@H](Cc3ccc(C(F)(F)F)cc3)C(=O)N(C)CC(=O)N[C@@H](CCc3ccc(C(F)(F)F)c(OC)c3)C(=O)N2C1 [PP1213] | AA (a compound having 20 or more is denoted as AA) | A (a compound having 10 or more and less than 20 is denoted as A) | – | – | –
32.7 nM | – | 0.49 nM | CCC[C@H]1C(=O)N[C@@H]([C@@H](C)CC)C(=O)N(C)CC(=O)N(C)[C@H]2C/C=C\CCN(C2=O)[C@@H](Cc2ccc(C(F)F)cc2)C(=O)N(C)CC(=O)N[C@@H](CCc2ccc(Cl)c(Cl)c2)C(=O)N2C[C@H](OC3CCC3)C[C@H]2C(=O)NC2(CC(C)(C)C2)C(=O)N(C)[C@@H](C(CC)CC)C(=O)N(C)[C@H](C(=O)N(C)C)CC(=O)N1C [PP2643] | – | – | AA (a compound having 20 or more is denoted as AA) | A (a compound having 10 or more and less than 20 is denoted as A) | –
30.1 nM | – | 0.73 nM | CCCN1C(=O)CN(C)C(=O)CN(C)C(=O)[C@H]([C@@H](C)CC)NC(=O)[C@H](CC(C)C)N(C)C(=O)C[C@@H](C(=O)N2CCOCC2)N(C)C(=O)[C@H](C2CCCC2)N(C)C(=O)[C@](C)(COC)NC(=O)[C@@H]2CCCN2C(=O)[C@H](CCc2cc(F)c(C(F)(F)F)c(F)c2)NC(=O)CN(C)C(=O)[C@@H]1Cc1ccc(C(F)(F)F)cc1 [PP0762] ([NMeL]I[Sar][Sar][NPrPhe(4-CF3)][Sar][hPhe(3,5-F2-4-CF3)]P[αMeS](Me)[NMeGly(cPent)][NMeD]-Morpholide; lactam N-11) | – | – | – | – | NRAS/KRAS (ratio of KD value with respect to NRAS to KD value with respect to KRAS) [2, 5]: B (a compound having 3 or more and less than 10 is denoted as B); HRAS/KRAS (ratio of KD value with respect to HRAS to KD value with respect to KRAS) [3, 6]: B (a compound having 3 or more and less than 10 is denoted as B)
4.1 nM | 0.03 nM | – | CCO[C@@H]1C[C@H]2C(=O)NC3(CCCC3)C(=O)N(C)[C@@H](C3CCCC3)C(=O)N(C)[C@H](C(=O)N(C)C)CC(=O)N(C)[C@@H](CC)C(=O)N[C@@H]([C@@H](C)CC)C(=O)N(C)CC(=O)N(C)[C@H]3C[C@@H](C)[C@@H](C)CN(C3=O)[C@@H](Cc3ccc(C(F)(F)F)cc3)C(=O)N(C)CC(=O)N[C@@H](CCc3ccc(C(F)(F)F)c(Cl)c3)C(=O)N2C1 [PP1358] | A (a compound having 10 or more and less than 20 is denoted as A) | B (a compound having 3 or more and less than 10 is denoted as B) | – | – | –
